Experimental findings from US8309608B2, “Use of eNOS transcription enhancers in the cell therapy of ischemic heart diseases” (Sanofi-Aventis Deutschland GmbH, priority 2003, dated 2012) are described below.

One may read the melting point as the temperature, or range, at which the solid turns liquid.

Data set [1] relates to eNOS promoter (eNOS transcription). The data set is described as follows: luciferase assay for activation of eNOS transcription. The class given is cell-based. As to conditions: human endothelial cell line with eNOS promoter-luciferase construct, 18 hours incubation; for TIR(max) value (maximum transcription induction ratio): ratio vs solvent alone; for pEC50: read-out: EC50 value of transcription induction ratio. As for the experimental part: Activation of eNOS transcription was measured as described in detail in Li et al., Activation of protein kinase C alpha and/or epsilon enhances transcription of the human endothelial nitric oxide synthase gene, Mol. Pharmacol. 1998, 53:630-637. Briefly, a 3.5 kB long fragment 5′ of the starting codon of the eNOS gene was cloned, sequenced and cloned in firefly luciferase expression plasmids to monitor activation of the eNOS promoter by reporter gene activity. A human endothelial cell line stable transfected and expressing this promoter-reporter construct was used for compound testing. Cells were incubated for 18 hours with compounds. All compounds were dissolved before in sterile dimethylsulfoxide (DMSO). A final concentration of 0.5% DMSO in complete medium was allowed. Induction of reporter gene expression in these cells was measured using a standard luciferase assay system (Promega, Madison, Wis., USA; Cat. No E150) according to the manufacturer's instructions. Luciferase induction in cells incubated with compounds were compared to those incubated with solvent alone. The ratio of both activities (transcription induction ratio, TIR) was plotted as a function of compound concentration. Typically, TIR values started at low concentrations at a ratio of 1, indicating no compound effect, and extended up to a maximum TIR value TIR(max) which indicates the increase of the eNOS transcription. EC50 values of transcription induction ratios as a function of compound concentration were determined graphically.

The subject of data set [2] is bone marrow stem and progenitor cells. In words: migratory capacity of bone marrow stem and progenitor cells in response to SDF-1 (modified Boyden chamber). The class given is cell-based, human. As to conditions: 100 ng/ml SDF-1. As for the experimental part:
For incubation with the eNOS transcription enhancer 4-fluoro-N-(indan-2-yl)benzamide, 1 ml of a suspension of 1000000 stem and progenitor cells in 1 ml of X-Vivo 10 cell culture medium was mixed with 1 μl of a solution of 4-fluoro-N-(indan-2-yl)benzamide in dimethylsulfoxide (DMSO) which had been prepared by dissolution of 1.275 mg of 4-fluoro-N-(indan-2-yl)benzamide in 1 ml of DMSO. The concentration of 4-fluoro-N-(indan-2-yl)benzamide in the resulting mixture was 5 μM. For incubation with the eNOS transcription enhancer 4-fluoro-N-(indan-2-yl)benzamide and the eNOS inhibitor N^G-monomethyl-L-arginine (L-NMMA), in addition to 4-fluoro-N-(indan-2-yl)benzamide, L-NMMA (Sigma, St. Louis, Mo., USA) was added to the cell suspension to give a resulting mixture with a 4-fluoro-N-(indan-2-yl)benzamide concentration of 5 μM and an L-NMMA concentration of 1 mM. Incubation was carried for 18 hours at a temperature of 37° C. under an atmosphere of air containing 5% of carbon dioxide. The cells were isolated by centrifugation, washed two times with PBS and resuspended in X-Vivo 10.
For assessing the migratory capacity of bone marrow stem and progenitor cells, a total of 1×10^6 bone marrow stem and progenitor cells were resuspended in 250 μl of X-Vivo 10 and placed in the upper chamber of a modified Boyden chamber filled with matrigel (BioCoat invasion assay, 8 μm pore size, Becton Dickinson Labware, Two Oak Park, Bedford, Mass., USA). Then, the chamber was placed in a 24-well culture dish containing 500 μl endothelial basic medium (EBM) supplemented with either phosphate buffered saline (PBS), 50 ng/ml VEGF, or 100 ng/ml SDF-1. After 24 hours incubation at 37° C., transmigrated cells were counted.

For data set [3], the system named is athymic NMRI nude mice, hind limb ischemia. The data set is described as follows: in vivo hind limb ischemia model in mice (laser Doppler blood flow after injection of pretreated cells). As to conditions: 5×10^5 cells/mouse i.v., measured after two weeks. As for the experimental part:
For incubation with the eNOS transcription enhancer 4-fluoro-N-(indan-2-yl)benzamide, 1 ml of a suspension of 1000000 stem and progenitor cells in 1 ml of X-Vivo 10 cell culture medium was mixed with 1 μl of a solution of 4-fluoro-N-(indan-2-yl)benzamide in dimethylsulfoxide (DMSO) which had been prepared by dissolution of 1.275 mg of 4-fluoro-N-(indan-2-yl)benzamide in 1 ml of DMSO. The concentration of 4-fluoro-N-(indan-2-yl)benzamide in the resulting mixture was 5 μM. […]
The neovascularization capacity of bone marrow stem and progenitor cells was investigated in a murine model of hind limb ischemia by use of 8 to 10 week old athymic NMRI nude mice (The Jackson Laboratory, Bar Harbor, Me., USA) weighing 18 to 22 g. […] After two weeks the limb perfusion was determined. Specifically, the ischemic (right) limb/normal (left) limb blood flow ratio was measured using a laser Doppler blood flow meter (Laser Doppler Perfusion Imager System, MoorLDI-Mark 2, Moor Instruments, Wilmington, Del., USA). […] After twice recording laser Doppler color images, the average perfusions of the ischemic and non-ischemic limb were calculated on the basis of colored histogram pixels. To minimize variables including ambient light and temperature, calculated perfusion was expressed as the ratio of ischemic to non-ischemic hind limb perfusion. […]

Structures are written as SMILES. pEC50: −log10 of the molar value.

Consider `O=C(NC1Cc2ccccc2C1)c1ccc(F)cc1` [4-fluoro-N-(indan-2-yl)benzamide], for which the melting point turned out to be 167 °C. In data set [1], the “TIR(max) value (maximum transcription induction ratio)” value stood at 4.10 and the pEC50 is 6.10. Besides, the “migratory response to SDF-1” value in data set [2] (cells from the healthy controls, 18 hours of treatment with 5 μM compound) was 111.2±38.5 ×1000 migrated cells. The “migratory response to SDF-1” value in data set [2] (cells from the healthy controls, 18 hours of treatment with 5 μM compound, listed as 4-fluoro-(N-indan-2-yl)benzamide) is 74.3±21.5 ×1000 migrated cells. In addition, in data set [2] (cells from the patients, 18 hours of treatment with 5 μM compound and 1 mM L-NMMA), the “migratory response to SDF-1” value is given as 23.9±7.4 ×1000 migrated cells. For the same compound, the “migratory response to SDF-1” value in data set [2] (cells from the patients, 18 hours of treatment with 5 μM compound) is 74.0±20.7 ×1000 migrated cells. In addition, the “laser Doppler-derived relative blood flow (ratio ischemic limb/normal limb)” value in data set [3] (cells from the patients treated for 18 hours with 5 μM compound and 1 mM L-NMMA) was found to be 39.7 ± 10.3%. In addition, the “laser Doppler-derived relative blood flow (ratio ischemic limb/normal limb)” value in data set [3] (cells from the patients treated for 18 hours with 5 μM compound) is 59.1 ± 11.6%.

Compound `O=C(NC1Cc2ccccc2C1)c1ccc2c(c1)OC(F)(F)O2` [2,2-difluorobenzo[1,3]dioxol-5-carboxylic acid indan-2-ylamide] gave a melting point of 147.5 °C. Further, in data set [1], the “TIR(max) value (maximum transcription induction ratio)” value worked out at 2.7 and the pEC50 was 6.85.
